According to US9605064B2, “Methods and compositions for treatment of skin disorders” (AbbVie Biotechnology Ltd, priority 2006, dated 2017):
Several values for one entry are separate records, joined by “and”; a condition that tells them apart may be missing. Equal values may be shown once. Marks after values point to notes of the source that are not given here.

Test system: patients with moderate to severe chronic plaque psoriasis
Assay: PASI response, Phase II 12-week placebo-controlled trial with 48-week extension
Type: in vivo, human
Settings: for Number of Patients Who Qualified for Dosage Escalation: 40 mg eow (n = 12); for PASI 50 (% patients) After Dose Escalation / PASI 75 (% patients) After Dose Escalation / PASI 90 (% patients) After Dose Escalation: escalation from eow to weekly dosing
From the text: Efficacy outcome measures included PASI and PGA.
The two primary clinical outcome measures used in this study were the psoriasis area and severity index (PASI) and the physician's global assessment (PGA). PASI improvement of greater than or equal to 75% (used as an endpoint in psoriasis clinical trials) at week 12 was the primary efficacy outcome measure for this study. PASI is a composite index indicating severity for three main signs of psoriatic plaques (erythema, scaling, and thickness), weighted by the amount of coverage of these plaques in four main body areas, i.e., head, trunk, upper extremities, and lower extremities. PASI scores, which range from 0-72, with higher scores indicating greater severity, were assessed at screening, baseline, week 1, week 2, week 4, week 8, week 12/early termination, and follow-up.
Skin and safety outcomes were assessed up to Week 60.
Analytical methods included the following: • Analyses of clinical data were performed on a modified intention-to-treat population (ITT). […] Patients whose dosages were increased on or after Week 24 were considered non-responders; • Patients with similar percentage PASI improvement across treatment arms were pooled into four strata: PASI<50, PASI 50-74, PASI 75-99, and PASI 100; and • Week-60 distribution of DLQI scores, mean DLQI scores, and mean change in DLQI from Week 0-60 were calculated within each stratum.
Frequently used as an endpoint in psoriasis clinical trials, the PASI [25] was the primary efficacy outcome in this trial. PASI is a composite index indicating the severity of the three main signs of psoriatic plaques (i.e., erythema, scaling, and thickness) and is weighted by the amount of coverage of these plaques in the four main body areas (head, trunk, upper extremities, and lower extremities). PASI scores range from 0-72, with higher scores indicating greater disease severity. PASI was assessed at screening and baseline, at Weeks 1, 2, 4, 8, and 12/Early Termination, and at the final follow-up visit.
At week 12, placebo patients received an 80-mg loading dose, then 40 mg every other week. […] Patients who receive the rescue therapy were considered non-responders in this analysis.

[1] = 40 mg eow, Week 60, modified ITT, NRI
[2] = 40 mg weekly, Week 60, modified ITT, NRI
[3] = (placebo→eow+eow) group, week 60, observed analysis
[4] = Efficacy at Weeks 24-60 (n = 22)
[5] = Week 12, adalimumab 40 mg eow, modified ITT, NRI
[6] = Week 12, adalimumab 40 mg weekly, modified ITT, NRI
[7] = Week 24, adalimumab 40 mg eow, modified ITT, NRI
[8] = Week 24, adalimumab 40 mg weekly, modified ITT, NRI
[9] = Week 24, placebo/adalimumab 40 mg eow (adalimumab from Week 12), modified ITT, NRI
[10] = Week 36, adalimumab 40 mg eow, modified ITT, NRI
[11] = Week 36, adalimumab 40 mg weekly, modified ITT, NRI
[12] = Week 36, placebo/adalimumab 40 mg eow (adalimumab from Week 12), modified ITT, NRI
[13] = Week 60, adalimumab 40 mg eow, modified ITT, NRI

Adalimumab: a human anti-TNF mAb, described in U.S. Pat. No. 6,090,382 as D2E7 (HUMIRA, Abbott Laboratories)
Number of Patients Who Qualified for Dosage Escalation (Week 24): 9
Number of Patients Who Qualified for Dosage Escalation (Week 28): 1
Number of Patients Who Qualified for Dosage Escalation (Week 32): 0
Number of Patients Who Qualified for Dosage Escalation (Week 44): 1
Number of Patients Who Qualified for Dosage Escalation (Week 52): 0
Number of Patients Who Qualified for Dosage Escalation (Week 60): 1
patients with sustained, clinically significant improvement (40 mg eow dosing): ~80%
Overall PASI 75 response rate (40 mg eow, Week 12, modified ITT, NRI): 53* % of Patients
Overall PASI 75 response rate (40 mg eow, Week 24, modified ITT, NRI): 64 % of Patients
Overall PASI 75 response rate (40 mg eow, Week 36, modified ITT, NRI): 64 % of Patients
Overall PASI 75 response rate [1]: 58 % of Patients and 56 % of Patients
PASI 50 response rate [1]: 64 % Patients
PASI 90 response rate [1]: 33 % Patients
PASI 100 response rate [1]: 16 % Patients
Overall PASI 75 response rate (40 mg eow, Week 60, modified ITT, NRI, listed as adalimumab): 58 % of Patients
mean percentage PASI improvement (40 mg every other week dosage of placebo/adalimumab, week 60): 69%
mean percentage PASI improvement (40 mg of adalimumab alone, on a weekly basis, week 60): 69%
Overall PASI 75 response rate (40 mg weekly, Week 12, modified ITT, NRI): 80* % of Patients
Overall PASI 75 response rate (40 mg weekly, Week 24, modified ITT, NRI): 72 % of Patients
Overall PASI 75 response rate (40 mg weekly, Week 36, modified ITT, NRI): 68 % of Patients
Overall PASI 75 response rate [2]: 64 % of Patients
PASI 50 response rate [2]: 66 % Patients
PASI 90 response rate [2]: 48 % Patients
PASI 100 response rate [2]: 26 % Patients
mean percentage PASI improvement (40 mg weekly, week 60): 84%
PASI 75-99 response rate [3]: 38
PASI 100 response rate [3]: 17
PASI 75 Response at Week 60, patients eligible for dose escalation (Adalimumab 40 mg eow (n = 9)): 22% (2/9)
PASI 50 (% patients) After Dose Escalation (Efficacy at Week 60 (n = 22)): 36%
PASI 75 (% patients) After Dose Escalation (Efficacy at Week 60 (n = 22)): 18%
PASI 90 (% patients) After Dose Escalation (Efficacy at Week 60 (n = 22)): 0%
PASI 50 (% patients) After Dose Escalation [4]: 55%
PASI 75 (% patients) After Dose Escalation [4]: 23%
PASI 90 (% patients) After Dose Escalation [4]: 5%
PASI 75 Response at Week 60, patients eligible for dose escalation (Placebo/Adalimumab 40 mg eow (n = 13)): 15% (2/13)
Percentages of Patients with > PASI 75 Response (Week 12, 40 mg eow (Table 79)): 53%
Percentages of Patients with > PASI 75 Response (Week 12, 40 mg weekly (Table 79)): 80%
Percentage of patients who achieved PASI 100 (Week 12, adalimumab 40 mg eow, NRI): 11* %
PASI 50 (% patients) [5]: 76%
Percentage of patients who achieved PASI 75 [5]: 53%
Percentage of patients who achieved PASI 90 [5]: 24%
Percentage of patients who achieved PASI 100 (Week 12, adalimumab 40 mg weekly, NRI): 26* %
PASI 50 (% patients) [6]: 88%
Percentage of patients who achieved PASI 75 [6]: 80%
Percentage of patients who achieved PASI 90 [6]: 48%
Patients Eligible for Dose Escalation (<PASI 50 response), number (Week 24, Adalimumab 40 mg eow (n = 9)): 5
Patients Eligible for Dose Escalation (<PASI 50 response), number (Week 24, Placebo/Adalimumab 40 mg eow (n = 13)): 5
Percentage of patients who achieved PASI 100 (Week 24, adalimumab 40 mg eow, NRI): 13%
Percentage of patients who achieved PASI 75 [7]: 64%
Percentage of patients who achieved PASI 90 [7]: 42%
Percentage of patients who achieved PASI 100 (Week 24, adalimumab 40 mg weekly, NRI): 24%
Percentage of patients who achieved PASI 75 [8]: 72%
Percentage of patients who achieved PASI 90 [8]: 62%
Percentage of patients who achieved PASI 100 (Week 24, placebo/adalimumab 40 mg eow (adalimumab from Week 12), NRI): 11%
Percentage of patients who achieved PASI 75 [9]: 55%
Percentage of patients who achieved PASI 90 [9]: 32%
Patients Eligible for Dose Escalation (<PASI 50 response), number (Week 28, Adalimumab 40 mg eow (n = 9)): 1
Patients Eligible for Dose Escalation (<PASI 50 response), number (Week 28, Placebo/Adalimumab 40 mg eow (n = 13)): 2
Patients Eligible for Dose Escalation (<PASI 50 response), number (Week 32, Adalimumab 40 mg eow (n = 9)): 0
Patients Eligible for Dose Escalation (<PASI 50 response), number (Week 32, Placebo/Adalimumab 40 mg eow (n = 13)): 2
Percentage of patients who achieved PASI 100 (Week 36, adalimumab 40 mg eow, NRI): 22%
Percentage of patients who achieved PASI 75 [10]: 64%
Percentage of patients who achieved PASI 90 [10]: 49%
Percentage of patients who achieved PASI 100 (Week 36, adalimumab 40 mg weekly, NRI): 36%
Percentage of patients who achieved PASI 75 [11]: 68%
Percentage of patients who achieved PASI 90 [11]: 58%
Percentage of patients who achieved PASI 100 (Week 36, placebo/adalimumab 40 mg eow (adalimumab from Week 12), NRI): 19%
Percentage of patients who achieved PASI 75 [12]: 62%
Percentage of patients who achieved PASI 90 [12]: 43%
Patients Eligible for Dose Escalation (<PASI 50 response), number (Week 44, Adalimumab 40 mg eow (n = 9)): 1
Patients Eligible for Dose Escalation (<PASI 50 response), number (Week 44, Placebo/Adalimumab 40 mg eow (n = 13)): 1
Patients Eligible for Dose Escalation (<PASI 50 response), number (Week 52, Adalimumab 40 mg eow (n = 9)): 0
Patients Eligible for Dose Escalation (<PASI 50 response), number (Week 52, Placebo/Adalimumab 40 mg eow (n = 13)): 3
Patients Eligible for Dose Escalation (<PASI 50 response), number (Week 60, Adalimumab 40 mg eow (n = 9)): 2
Patients Eligible for Dose Escalation (<PASI 50 response), number (Week 60, Placebo/Adalimumab 40 mg eow (n = 13)): 0
Percentage of patients who achieved PASI 100 (Week 60, adalimumab 40 mg eow, NRI): 16%
PASI 50 (% patients) [13]: 67%
Percentage of patients who achieved PASI 75 [13]: 58%
Percentage of patients who achieved PASI 90 [13]: 33%
Percentage of patients who achieved PASI 100 (Week 60, adalimumab 40 mg weekly, NRI): 26%
